In PMC10218109, “Old Drug, New Delivery Strategy: MMAE Repackaged” (International Journal of Molecular Sciences, 2023):

Tests used:
[1] = target: T1, prostate specific membrane antigen (PSMA) (Homo sapiens, UniProt Q04609); test: competitive radioligand binding on PSMA-positive LNCaP cells (reference ligand); format: cell-based
T1 construct: gene FOLH1

[2] = target: T1, prostate specific membrane antigen (PSMA); test: competitive radioligand binding on PSMA-positive LNCaP cells vs […]Ga-PSMA-10; format: cell-based

T1 sequence (Q04609 whole entry): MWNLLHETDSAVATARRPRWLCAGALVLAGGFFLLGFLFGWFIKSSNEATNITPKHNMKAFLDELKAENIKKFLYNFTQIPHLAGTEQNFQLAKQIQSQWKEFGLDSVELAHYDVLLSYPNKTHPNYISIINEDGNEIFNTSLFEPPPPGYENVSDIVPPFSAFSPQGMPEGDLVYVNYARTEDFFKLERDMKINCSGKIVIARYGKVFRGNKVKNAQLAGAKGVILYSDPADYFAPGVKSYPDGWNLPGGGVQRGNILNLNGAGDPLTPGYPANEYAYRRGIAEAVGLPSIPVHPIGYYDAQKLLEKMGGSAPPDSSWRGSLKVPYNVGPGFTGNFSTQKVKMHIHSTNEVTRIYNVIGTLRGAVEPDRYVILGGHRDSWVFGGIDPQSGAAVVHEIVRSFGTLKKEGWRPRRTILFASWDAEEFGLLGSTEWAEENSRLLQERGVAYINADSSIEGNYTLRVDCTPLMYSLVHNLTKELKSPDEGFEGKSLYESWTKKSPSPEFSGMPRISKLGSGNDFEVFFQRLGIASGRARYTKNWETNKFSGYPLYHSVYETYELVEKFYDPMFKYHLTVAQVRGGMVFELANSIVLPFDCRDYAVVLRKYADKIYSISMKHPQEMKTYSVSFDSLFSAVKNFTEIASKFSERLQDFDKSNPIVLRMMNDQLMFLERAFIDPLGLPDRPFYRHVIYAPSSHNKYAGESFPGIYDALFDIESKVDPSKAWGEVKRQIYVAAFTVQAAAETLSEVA

Row | IC50 [2] [nM] | SMILES | IC50 [1] [nM]
1 | – | O=C(O)CCc1ccc(O)c(CN(CCN(CC(=O)O)Cc2cc(CCC(=O)NCCCCCC(=O)NCCCC[C@H](NC(=O)N[C@@H](CCC(=O)O)C(=O)O)C(=O)O)ccc2O)CC(=O)O)c1 [PSMA-11] | 17.4 ± 1.6
2 | – | O=C(O)CC[C@H](NC(=O)N[C@@H](CCCCNC(=O)[C@H](Cc1ccc2ccccc2c1)NC(=O)[C@H]1CC[C@H](CNC(=O)CN2CCN(CC(=O)O)CCN(CC(=O)O)CCN(CC(=O)O)CC2)CC1)C(=O)O)C(=O)O [PSMA-617] | 15.1 ± 3.8
3 | 21.5 ± 1.9 | NC[C@H]1CC[C@H](C(=O)N[C@@H](Cc2ccc3ccccc3c2)C(=O)NCCCC[C@H](NC(=O)N[C@@H](CCC(=O)O)C(=O)O)C(=O)O)CC1 [KuE-617] | –
